Measured values reported in PMC6720605, “Bioactivity of Methoxylated and Methylated 1-Hydroxynaphthalene-2-Carboxanilides: Comparative Molecular Surface Analysis” (Molecules, 2019).
In brackets after ≈: the same amount, converted by molar mass. Where two headings read alike, the source gives them in different places.

Key:
[1] = Lipophilicity determination by HPLC (capacity factor k / calculated log k); assay type: physicochemical; settings: experimental lipophilicity
Procedure: The lipophilicity determination was performed as described by Kapustikova et al..

[2] = test system: Staphylococcus aureus ATCC 29213; assay: In vitro antistaphylococcal susceptibility testing (MIC), reference strain; assay type: cell-based
Procedure: (§1) The synthesized compounds were evaluated for in vitro antibacterial activity against representatives of multidrug-resistant bacteria, clinical isolates of methicillin-resistant Staphylococcus aureus (MRSA) 63718, SA 630 and SA 3202 [16, 17] that were obtained from the National Institute of Public Health (Prague, Czech Republic). S. aureus ATCC 29213 was used as the reference and quality control strain. Ampicillin (Sigma, St. Louis, MO, USA) was used as the standard. The screening was performed as described previously.

[3] = test system: methicillin-resistant S. aureus 63718; assay: In vitro antibacterial evaluation (MIC), MRSA clinical isolate 63718; assay type: cell-based, Staphylococcus aureus
Procedure: as §1

[4] = test system: methicillin-resistant S. aureus SA 630; assay: In vitro antibacterial evaluation (MIC), MRSA clinical isolate SA 630; assay type: cell-based, Staphylococcus aureus; settings: read-out: MIC MRSA SA 630
Procedure: as §1

[5] = test system: methicillin-resistant S. aureus SA 3202; assay: In vitro antibacterial evaluation (MIC), MRSA clinical isolate SA 3202; assay type: cell-based, Staphylococcus aureus; settings: read-out: MIC MRSA SA 3202
Procedure: as §1

[6] = test system: Mycobacterium tuberculosis H37Ra ATCC 25177; assay: In vitro antimycobacterial evaluation (MIC), M. tuberculosis; assay type: cell-based
Procedure: (§2) The evaluation of the in vitro antimycobacterial activity of the compounds was performed against Mycobacterium tuberculosis H37Ra ATCC 25177 and M. kansasii DSM 44162 by means of the methodology described recently [e.g., 1,3,4–6,15,43]. Isoniazid (Sigma) was used as the standard.

[7] = test system: M. kansasii DSM 44162; assay: In vitro antimycobacterial evaluation (MIC), M. kansasii; assay type: cell-based, Mycobacterium kansasii
Procedure: as §2

[8] = test system: photosynthetic electron transport (PET) in spinach (Spinacia oleracea L.) chloroplasts; assay: Inhibition of photosynthetic electron transport (PET) in spinach chloroplasts; assay type: biochemical
Procedure: The PET-inhibiting investigation using chloroplasts from spinach (Spinacia oleracea L.) was performed as described previously.

[9] = test system: human monocytic leukaemia THP-1 cells; assay type: cell-based; settings: 30 µM highest concentration
Procedure: Human monocytic leukaemia THP-1 cells were obtained from the European Collection of Cell Cultures (ECACC, Salisbury, UK; Methods of characterization: DNA Fingerprinting (Multilocus probes) and isoenzyme analysis). Cell toxicity was determined using a Cytotoxicity Detection Kit^PLUS Lactate dehydrogenase (LDH) assay kit (Roche Diagnostics, Mannheim, Germany) according to the manufacturer’s instructions, as described previously.

[10] = test system: M. tuberculosis ATCC 25177/H37Ra; assay: MTT assay, viability of M. tuberculosis; assay type: cell-based, Mycobacterium tuberculosis; settings: at tested MIC concentration; 7 days
Procedure: Compounds were prepared as previously stated and diluted in MH or MB broth for S. aureus to achieve the desired final concentrations 0.5 and 1 µg/mL, respectively, for S. aureus ATCC 29213, and 2 and 8 µg/mL, respectively, for M. tuberculosis ATCC 25177/H37Ra. M. tuberculosis ATCC 25177/H37Ra was suspended in ODAC supplemented MB at 1.0 McFarland and then diluted 1:10, using MB as a diluent. The diluted mycobacteria (50 µL) were added to each well containing the compound to be tested. S. aureus bacterial suspension in sterile distilled water at 0.5 McFarland was diluted 1:3. Inocula were added to each well by multi-inoculator. Diluted mycobacteria in broth free from inhibiting compounds were used as the growth control. All compounds were prepared in duplicate. […] The plates were read at 570 nm. The absorbance readings from the cells grown in the presence of the tested compounds were compared with uninhibited cell growth to determine the relative percent inhibition. The percent inhibition was determined through the MTT assay. The percent viability is calculated through the comparison of a measured value and that of the uninhibited control: % viability = OD570E/OD570P × 100, where OD570E is the reading from the compound-exposed cells, while OD570P is the reading from the uninhibited cells (positive control). Cytotoxic potential is determined by a percent viability of <70% [37, 38, 39, 52].

[11] = test system: S. aureus ATCC 29213; settings: Staphylococcus aureus, 24 h
[12] = Staphylococcus aureus, clinical isolate MRSA 63718, read-out: MIC MRSA 63718
[13] = Staphylococcus aureus, clinical isolate MRSA SA 630
[14] = Staphylococcus aureus, clinical isolate MRSA SA 3202
[15] = Mycobacterium kansasii, DSM44162, M. kansasii DSM 44162, read-out: MIC MK
[16] = Staphylococcus aureus, one value for the three clinical MRSA strains (63718, SA 630, SA 3202), read-out: MIC against the MRSA strains
[17] = clinical isolate MRSA 63718, read-out: MIC MRSA 63718
[18] = M. kansasii DSM 44162, read-out: MIC MK

| SMILES | log k [1] | MIC ([2]; ATCC29213) | MIC [6] | IC50 [8] | Tox LD50 [9] | MIC [2] | MIC [3, 17] | MIC ([4]; clinical isolate MRSA SA 630) | MIC ([5]; clinical isolate MRSA SA 3202) | MIC [7, 18] | also measured |
| --- | --- | --- | --- | --- | --- | --- | --- | --- | --- | --- | --- |
| COc1ccc(Br)cc1NC(=O)c1ccc2ccccc2c1O [Compound 20, N-(5-Bromo-2-methoxyphenyl)-1-hydroxynaphthalene-2-carboxamide] | 1.0432 | 687 µM (≈ 256 µg/mL) | 344 µM (≈ 128 µg/mL) | 569 µM |  |  |  |  |  |  | MIC [3, 12]: 687 µM (≈ 256 µg/mL); MIC [4, 13]: 687 µM (≈ 256 µg/mL); MIC [5, 14]: 687 µM (≈ 256 µg/mL); MIC [7, 15]: 687 µM (≈ 256 µg/mL); melting point: 157 to 159 °C |
| CC[C@@]1(O)C(=O)OCc2c1cc1n(c2=O)Cc2cc3ccccc3nc2-1 [camptothecin, reference compound] |  |  |  |  | 0.16 ± 0.07 µM |  |  |  |  |  |  |
| COc1cc(NC(=O)c2ccc3ccccc3c2O)cc(OC)c1 [Compound 6, N-(3,5-dimethoxy-phenyl)-1-hydroxynaphthalene-2-carboxamide] | 0.7048 | 12.3 µM (≈ 3.98 µg/mL) | 24.7 µM (≈ 7.99 µg/mL) | 13.4 µM | >30 µM | 12.3 µM (≈ 3.98 µg/mL) |  |  |  |  | MIC ([3]; Staphylococcus aureus, MRSA, read-out: MIC MRSA 63718): 24.7 µM (≈ 7.99 µg/mL); MIC ([3]; Staphylococcus aureus, MRSA, read-out: MIC against the MRSA strains): 24.7 µM (≈ 7.99 µg/mL); MIC ([4]; Staphylococcus aureus, MRSA): 24.7 µM (≈ 7.99 µg/mL); MIC ([5]; Staphylococcus aureus, MRSA): 24.7 µM (≈ 7.99 µg/mL); MIC ([7]; Mycobacterium kansasii, DSM44162, read-out: MIC MK): 24.7 µM (≈ 7.99 µg/mL) |
| Cc1ccc(C)c(NC(=O)c2ccc3ccccc3c2O)c1 [Compound 11, N-(2,5-dimethylphenyl)-1-hydroxynaphthalene-2-carboxamide] | 0.7155 | 13.7 µM (≈ 3.99 µg/mL) | 110 µM (≈ 32 µg/mL) | 52.4 µM | >30 µM |  |  |  |  |  | MIC [3, 12]: 27.5 µM (≈ 8.01 µg/mL); MIC [3, 16]: 27.5 µM (≈ 8.01 µg/mL); MIC [4, 13]: 27.5 µM (≈ 8.01 µg/mL); MIC [5, 14]: 27.5 µM (≈ 8.01 µg/mL); MIC [7, 15]: 220 µM (≈ 64.1 µg/mL) |
| Cc1cc(C)cc(NC(=O)c2ccc3ccccc3c2O)c1 [Compound 13, N-(3,5-dimethylphenyl)-1-hydroxynaphthalene-2-carboxamide] | 1.0030 | 3.43 µM (≈ 0.999 µg/mL) | 6.86 µM (≈ 2 µg/mL) | 8.19 µM | >30 µM | 3.43 µM (≈ 0.999 µg/mL) |  |  |  |  | MIC [3, 12]: 6.85 µM (≈ 2 µg/mL); MIC [3, 16]: 6.85 µM (≈ 2 µg/mL); MIC [4, 13]: 6.85 µM (≈ 2 µg/mL); MIC [5, 14]: 6.85 µM (≈ 2 µg/mL); MIC [7, 15]: 27.4 µM (≈ 7.98 µg/mL); viability of M. tuberculosis H37Ra (MTT) [10]: 32%; viability of S. aureus ATCC 29213 (MTT) [11]: 19% |
| COc1ccc(NC(=O)c2ccc3ccccc3c2O)cc1C(F)(F)F [Compound 22] | 0.8915 |  | 354 µM (≈ 128 µg/mL) | 18.5 µM |  | 354 µM (≈ 128 µg/mL) | 354 µM (≈ 128 µg/mL) | 354 µM (≈ 128 µg/mL) | 5.53 µM (≈ 2 µg/mL) | 88.5 µM (≈ 32 µg/mL) |  |
| COc1ccc(OC)c(NC(=O)c2ccc3ccccc3c2O)c1 [Compound 5] | 0.8712 |  | 396 µM (≈ 128 µg/mL) | 201 µM |  | 791 µM (≈ 256 µg/mL) | 395 µM (≈ 128 µg/mL) | 395 µM (≈ 128 µg/mL) | 197 µM (≈ 63.7 µg/mL) | 24.7 µM (≈ 7.99 µg/mL) |  |
| COc1ccc([N+](=O)[O-])cc1NC(=O)c1ccc2ccccc2c1O [Compound 19] | 0.4827 |  | 378 µM (≈ 128 µg/mL) | 155 µM |  | 756 µM (≈ 256 µg/mL) | 756 µM (≈ 256 µg/mL) | 756 µM (≈ 256 µg/mL) | 756 µM (≈ 256 µg/mL) | 756 µM (≈ 256 µg/mL) |  |
| COc1cc(NC(=O)c2ccc3ccccc3c2O)cc(OC)c1OC [Compound 7] | 0.5603 |  | 22.6 µM (≈ 7.99 µg/mL) | 468 µM |  | 724 µM (≈ 256 µg/mL) | 724 µM (≈ 256 µg/mL) | 724 µM (≈ 256 µg/mL) | 724 µM (≈ 256 µg/mL) | 90.5 µM (≈ 32 µg/mL) |  |
| Cc1cc(C)c(NC(=O)c2ccc3ccccc3c2O)c(C)c1 [Compound 14] | 0.7477 |  | 13.1 µM (≈ 4 µg/mL) | 295 µM |  | >838 µM | >838 µM | >838 µM | >838 µM | 104 µM (≈ 31.8 µg/mL) |  |
| Cc1ccc(C(F)(F)F)cc1NC(=O)c1ccc2ccccc2c1O [Compound 25] | 0.7479 |  | 46.3 µM (≈ 16 µg/mL) | 36.7 µM |  | 741 µM (≈ 256 µg/mL) | 741 µM (≈ 256 µg/mL) | 741 µM (≈ 256 µg/mL) | 741 µM (≈ 256 µg/mL) | 92.6 µM (≈ 32 µg/mL) |  |
| COc1cc(F)cc(NC(=O)c2ccc3ccccc3c2O)c1 [Compound 23, N-(3-Fluoro-5-methoxyphenyl)-1-hydroxynaphthalene-2-carboxamide] | 0.7629 | 1.6 µM (≈ 0.498 µg/mL) | 25.6 µM (≈ 7.97 µg/mL) | 10.1 µM | >30 µM | 1.60 µM (≈ 0.498 µg/mL) |  |  |  | 12.0 µM (≈ 3.74 µg/mL) | MIC [3, 12]: 3.21 µM (≈ 0.999 µg/mL); MIC [3, 16]: 3.21 µM (≈ 0.999 µg/mL); MIC [4, 13]: 3.21 µM (≈ 0.999 µg/mL); MIC [5, 14]: 3.21 µM (≈ 0.999 µg/mL); MIC [7, 15]: 12 µM (≈ 3.74 µg/mL); viability of S. aureus ATCC 29213 (MTT) [11]: 49% |
| COc1ccccc1NC(=O)c1ccc2ccccc2c1O [Compound 2] | 0.8584 |  | 436 µM (≈ 128 µg/mL) | 199 µM |  | >873 µM | >873 µM | >873 µM | >873 µM | >873 µM |  |
| Cc1ccccc1NC(=O)c1ccc2ccccc2c1O [Compound 8] | 0.5650 |  | 462 µM (≈ 128 µg/mL) | 62.8 µM |  | 115 µM (≈ 31.9 µg/mL) | 231 µM (≈ 64.1 µg/mL) | 231 µM (≈ 64.1 µg/mL) | 231 µM (≈ 64.1 µg/mL) | 115 µM (≈ 31.9 µg/mL) |  |
